Source: patent US20090274773A1, “ANTIPROLIFERATIVE COMBINATION COMPRISING CYC-682 AND A CYTOTOXIC AGENT” (Cyclacel Limited, priority 2005, published 2009)

Experiments:
Assay in all cases: MTT growth inhibition assay, single agent
Type in all cases: cell-based, human
HOP62 = settings: Homo sapiens, HOP-62, 24 hours exposure, read-out: Antiproliferative effects IC50s (MTT assay)
Protocol: (§1) All cell lines were obtained from the ATCC (Rockville, Md.). Cells were grown as monolayers in RPMI medium supplemented with 10% fetal calf serum (Invitrogen, Cergy-Pontoise, France), 2 mM glutamine, 100 units/ml penicillin and 100 μg/ml streptomycin. All cells were split twice a week using trypsin/EDTA (0.25% and 0.02%, respectively; Invitrogen, Cergy-Pontoise, France) and seeded at a concentration of 2.5×10^4 cells/ml. All cell lines were tested regularly for Mycoplasma contamination by PCR using a Stratagene kit (La Jolla, Calif.).
(§2) The MTT assay was carried out as described previously (Hansen M B, Nielsen S E, Berg K. Re-examination and further development of a precise and rapid dye method for measuring cell growth/cell kill. J Immunol Methods. 1989 May 12; 119(2):203-10). In brief, cells were seeded in 96-well tissue culture plates at a density of 2×10^3 cells/well. Cell viability was determined after a 120-hour incubation, by the calorimetric conversion of yellow, water-soluble tetrazolium MTT (3-[4,5-dimethylthiazol-2-yl]-2,5-diphenyltetrazolium bromide; Sigma, Saint-Quentin Fallavier, France), into purple, water-insoluble formazan. This reaction is catalyzed by mitochondrial dehydrogenases and is used to estimate the relative number of viable cells (Mosmann, T, Rapid calorimetric assay for cellular growth and survival: application to proliferation and cytotoxicity assays. J Immunol Methods. 1983 Dec. 16; 65 (1-2):55-63). Cells were incubated with 0.4 mg/ml MTT for 4 hours at 37° C. After incubation, the supernatant was discarded, the cell pellet was resuspended in 0.1 ml of DMSO and the absorbance was measured at 560 nm using a microplate reader (Dynatech, Michigan). Wells with untreated cells or with drug-containing medium without cells were used as positive and negative controls, respectively. Growth inhibition curves were plotted as a percentage of untreated control cells.
(§3) The cells were seeded at 2×10^3 cells/well in 96-well plates and treated 24 hours later with increasing concentrations of CYC682. After incubation times of 1 hour, 24 hours or 48 hours, the cells were washed and post-incubated in drug-free medium for 72 hours. Growth inhibition was then determined by the MTT assay.

OVCAR1 = settings: Homo sapiens, 24 hours exposure, read-out: Antiproliferative effects IC50s (MTT assay)
Protocol: as §1, §2, §3

HT29 = settings: Homo sapiens, HT-29, 24 hours exposure, read-out: Antiproliferative effects IC50s (MTT assay)
Protocol: as §1, §2, §3

HOP92 = settings: Homo sapiens, HOP-92, 24 hours exposure, read-out: Antiproliferative effects IC50s (MTT assay)
Protocol: as §1, §2, §3

MCF7 = settings: Homo sapiens, 24 hours exposure, read-out: Antiproliferative effects IC50s (MTT assay)
Protocol: as §1, §2, §3

COLO205 = settings: Homo sapiens, COLO 205, 24 hours exposure, read-out: Antiproliferative effects IC50s (MTT assay)
Protocol: as §1, §2, §3

IGROV1 = settings: Homo sapiens, IGROV-1, 24 hours exposure, read-out: Antiproliferative effects IC50s (MTT assay)
Protocol: as §1, §2, §3

HCC2998 = settings: Homo sapiens, HCC 2998, 24 hours exposure, read-out: Antiproliferative effects IC50s (MTT assay)
Protocol: as §1, §2, §3

HCT116 = settings: Homo sapiens, HCT-116, 24 hours exposure, read-out: Antiproliferative effects IC50s (MTT assay)
Protocol: as §1, §2, §3

MDA-MB-435 = settings: Homo sapiens, 24 hours exposure, read-out: Antiproliferative effects IC50s (MTT assay)
Protocol: as §1, §2, §3

SMILES	IC50 (HOP62) [nM]	IC50 (OVCAR1) [µM]	IC50 (HT29) [nM]	IC50 (HOP92) [nM]	IC50 (MCF7) [nM]	IC50 (COLO205) [nM]	IC50 (IGROV1) [nM]	IC50 (HCC2998) [nM]	IC50 (HCT116) [nM]	IC50 (MDA-MB-435) [nM]
CC(=O)O[C@@]12CO[C@@H]1C[C@H](O)[C@@]1(C)C(=O)[C@H](O)C3=C(C)[C@@H](OC(=O)[C@H](O)[C@@H](NC(=O)OC(C)(C)C)c4ccccc4)C[C@@](O)([C@@H](OC(=O)c4ccccc4)[C@H]21)C3(C)C [Docetaxel]	20 ± 40	50 ± 0.12	10 ± 2	5 ± 1	10 ± 4	6 ± 1	20 ± 10	4 ± 1	10 ± 20	10 ± 2
COc1cccc2c1C(=O)c1c(O)c3c(c(O)c1C2=O)C[C@@](O)(C(=O)CO)C[C@@H]3O[C@H]1C[C@H](N)[C@H](O)[C@H](C)O1 [Doxorubicin]	140 ± 40	1 ± 0.2	1070 ± 160	100 ± 50	700 ± 100	1500 ± 500	1300 ± 300	700 ± 140	100 ± 20	2000 ± 400
